# Experimental data from PMC9938201, “Neuroprotective and antioxidant properties of new quinolylnitrones in in vitro and in vivo cerebral ischemia models” (Scientific Reports, 2023).
# Target: T1, soybean lipoxygenase (LOX) (Glycine max, UniProt P08170)
# T1 construct: gene LOX1.1
# T1 sequence (P08170 1-839): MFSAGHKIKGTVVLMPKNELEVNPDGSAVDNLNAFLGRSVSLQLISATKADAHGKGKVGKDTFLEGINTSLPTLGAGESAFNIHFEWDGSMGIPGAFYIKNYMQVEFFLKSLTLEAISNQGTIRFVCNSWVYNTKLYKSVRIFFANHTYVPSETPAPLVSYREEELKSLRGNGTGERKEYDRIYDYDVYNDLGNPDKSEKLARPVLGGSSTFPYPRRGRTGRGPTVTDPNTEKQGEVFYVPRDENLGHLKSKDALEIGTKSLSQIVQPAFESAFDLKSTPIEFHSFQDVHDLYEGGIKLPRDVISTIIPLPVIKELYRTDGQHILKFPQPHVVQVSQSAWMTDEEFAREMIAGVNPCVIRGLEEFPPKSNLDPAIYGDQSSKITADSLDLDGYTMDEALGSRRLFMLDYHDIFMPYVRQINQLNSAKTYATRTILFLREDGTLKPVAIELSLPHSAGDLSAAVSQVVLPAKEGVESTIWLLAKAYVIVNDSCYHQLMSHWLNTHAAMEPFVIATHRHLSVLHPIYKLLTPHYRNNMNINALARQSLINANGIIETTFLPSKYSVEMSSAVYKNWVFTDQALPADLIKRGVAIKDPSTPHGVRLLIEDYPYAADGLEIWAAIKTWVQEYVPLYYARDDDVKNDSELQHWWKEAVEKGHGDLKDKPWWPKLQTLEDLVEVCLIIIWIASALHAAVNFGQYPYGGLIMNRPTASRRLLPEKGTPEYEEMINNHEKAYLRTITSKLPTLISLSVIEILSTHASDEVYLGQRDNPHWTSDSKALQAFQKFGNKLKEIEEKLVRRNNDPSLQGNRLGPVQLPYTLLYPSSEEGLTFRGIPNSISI
# Experiment: UV absorbance at […] nm, sodium linoleate oxidation by soybean LOX, pH […]
# Format: biochemical
smiles,measurement,value
CC(C)(C)/[N+]([O-])=C/c1ccc2cccc(O)c2n1 [QN5],IC50,5 µM
